Data on 25 molecules can be found in patent US20070009529A1, “Agents that dissolve arterial thrombi” (New York University, priority 2002, published 2007).

“Also recorded” adds a separate entry of the source. Where two headings read alike, the source gives them in different places. *: point of attachment. Biotin = O=C1N[C@H]2[C@H](CS[C@H]2CCCCC(=O)*)N1

In assay [1] the test system is platelets. Put plainly: Effect of inhibitors on anti-GPIIIa49-66 Ab-induced platelet particle formation / oxidative fragmentation. The format is cell-based, human. Also on record: effect on Ab-induced platelet particle formation: unit of the concentration uncertain. Here is the method:
Induction of Platelet Particles. […] 1×10^7 gel-filtered platelets/ml were labelled with an anti-GPIIb-FITC monoclonal Ab (MoAb) (3B2) or an anti-GPIIIa-FITC MoAb (Ancell, Bayport, Minn.), 10 ug/ml for 30 min at 4° C., centrifuged at 1000 g×6 min at room temperature, and resuspended in Tyrodes buffer. […] (see below).
Debris and dead cells were excluded using scatter gates. Only cells with low orthogonal light scattering were included in the sorting gates. Gates were adjusted for control platelets by exclusion of other blood cells. Intact platelets were monitored in the right upper quadrant (RUQ) with the Y-axis measuring forward-scatter and the X-axis measuring fluorescence. A shift in the fluorescent particles from RUQ to LUQ reflected % platelet particle induction of 10,000 counted platelets/particles.
However, a recent report by Lerner and coworkers [19]provided evidence that Ab's in general are capable of inducing peroxide formation from an assortment of Ag's depending upon the tryptophan and cysteine composition and orientation. […] This hypothesis was tested with the use of diphenyleneiodonium (DPI), an inhibitor of NADH/NADPH oxidase, as well as other flavoprotein oxidases.

The subject of assay [2] is platelets. Put plainly: Ca++ flux (fura-2, AM) in activation of oxidative platelet death.
Assay [3] has as its system platelets. Put plainly: Platelet oxidation/fragmentation induced independently of anti-GPIIIa49-66 (DCHF-loaded platelets). The format is cell-based.
The test system of assay [4] is p47phox(−/−), gp91phox(−/−)KO, 12-LO(−/−)KO mouse platelets. Put plainly: Platelet oxidation in NADPH oxidase and 12-LO KO mouse platelets. The note with it: gp91phox(−/−)KO and 12-LO(−/−)KO mouse platelets. Type of assay: cell-based. As to the method: It has also been discovered that platelet oxidation/fragmentation can be induced independently of anti-GPIIIa49-66 by […] A23187, a Ca^++ ionophore, or 0.4 μM PMA, a protein kinase C activator. […] Their reactivity is inhibited by the oxidation scavengers catalase (H2O2) and DPI (diphenylene iodonium, an inhibitor of NADPH-oxidase), and is absent in NADPH oxidase p47phox(−/−), gp91phox(−/−)KO as well as 12-LO(−/−)KO mouse platelets. Thus, anti-GPIIIa49-66 could be inducing the intracellular effects of ionophore and PMA.

For assay [5], the system named is platelets. Put plainly: Inhibition of HUVEC ADAMTS-18 induced platelet oxidation fragmentation. Type of assay: cell-based. The note with it: single agent, n=7. The source says: Recombinant ADAMTS-18 was then made with the expression vector pBudCE4.1 in 293T cells. This peptide induced platelet 12(S)—HETE and oxidation/fragmentation in an identical kinetic fashion as anti-GPIIIa49-66 antibody. Both expressed rADAMTS-18, and HUVEC conditioned media ADAMTS-18 could be activated by thrombin (0.5μ/mL and then neutralized with hirudin), with optimum effect at one hour (n=4). HUVEC ADAMTS-18 induced oxidation fragmentation could be inhibited about 50% by an scFV antibody raised against the ADAMTS-18 (18-mer) peptide as well as GPIIIa49-66 peptide, as well as RGDS (GPIIIa ligand binding site) (n=7).

The test system of a further assay is mice. As to conditions: earlier reports [10], [14]; cited from earlier work.
The mark [6] stands for this setting: 4 Hrs, doubling concentrations from 50 uM/ml catalase and 5 uM/ml DPI, no UV/light irradiation.
Setting [7] is: inhibitor at 2 (unit uncertain).

On to `COC(=O)CC(NC(=O)OC(C)(C)C)C(=O)CF` (stereo not drawn) [FK-011], for which the “effect on Ab-induced platelet particle formation” value with platelets [1] (inhibitor at 100 uM) is recorded as “unsuccessful”. In the case of `COc1ccc2c(c1)c(CC(=O)O)c(C)n2C(=O)c1ccc(Cl)cc1` [indomethacin], the “effect on Ab-induced platelet particle formation” value in the assay with platelets [1] (inhibitor at 20 uM) is listed as “failed to inhibit”. Consider `O=C(O)CN(CCOCCOCCN(CC(=O)O)CC(=O)O)CC(=O)O` [EGTA, ethylenebis(oxyethylenenitrilo)tetraacetic acid], for which the “inhibition of Ca++ flux” value with platelets [2] (100 μM) is “completely inhibited”. Regarding `CNc1ccc2oc(C[C@H]3O[C@@]4(CC[C@H]3C)O[C@H]([C@H](C)C(=O)c3ccc[nH]3)[C@H](C)C[C@H]4C)nc2c1C(=O)O` [A23187, calcimycin], in the assay with platelets [3], the “induction of platelet oxidation/fragmentation” value is listed as “induced” and the “oxidation of platelets loaded with the oxidative fluorochrome DCHF” value was “induce oxidation”. Besides, the “reactivity (platelet oxidation) in KO mouse platelets” value in assay [4] is reported as “absent”. On to `c1ccc2c(c1)[I+]c1ccccc1-2` [DPI, diphenyleneiodonium], for which, in the assay with platelets [1] (setting [6]), the “effect on Ab-induced platelet particle formation” value is “inhibition; also recorded: inhibited”. The “effect of oxidation scavenger on reactivity of A23187 and PMA” value in the assay with platelets [3] was “inhibited”. As for RGDS, the “inhibition of HUVEC ADAMTS-18 induced oxidation fragmentation” value in the assay with platelets [5] is listed as “about 50%”. As to `O=CC[C@@H](O)[C@H](O)[C@H](O)CO` [2-deoxyglucose], the “effect on Ab-induced platelet particle formation” value in the assay on platelets [1] (inhibitor at 3 (unit uncertain)) is given as “unsuccessful”. Regarding `COc1cc2c(c(OC)c1OC)-c1ccc(OC)c(=O)cc1[C@@H](NC(C)=O)CC2` [Colchicine], the “effect on Ab-induced platelet particle formation” value in the assay on platelets [1] (setting [7]) is given as “unsuccessful”.

Consider `C=C1[C@@H](C)[C@H]2[C@H](Cc3ccccc3)NC(=O)[C@]23[C@H](OC(C)=O)/C=C/[C@@](C)(O)C(=O)[C@@H](C)C/C=C/[C@H]3[C@@H]1O` [cytochalasin D], for which, in the assay with platelets [1] (inhibitor at 10 uM), the “effect on Ab-induced platelet particle formation” value is “unsuccessful”. For the molecule `[N-]=[N+]=[N-].[Na+]` [NaAz], in the assay with platelets [1], the “effect on Ab-induced platelet particle formation” value was “unsuccessful”. In the case of `CC1CNCCN1S(=O)(=O)c1cccc2cnccc12` (stereo not drawn) [H-7], the “effect on Ab-induced platelet particle formation” value in the assay on platelets [1] (inhibitor at 40 uM) is recorded as “unsuccessful”. Regarding “CAPESIEFPVSEARVLED [GPIIIa49-66 peptide]”, in the assay on platelets [5], the “inhibition of HUVEC ADAMTS-18 induced oxidation fragmentation” value is recorded as “about 50%”. Further, in the assay on mice, the “prevention or reversal of murine thrombocytopenia induced by anti-GPIIIa49-66 Ab” value was “prevented or reversed”. Consider “bio-VQTRSVHCVQQGRPSSSC—OH (Biotin-VQTRSVHCVQQGRPSSSC-OH; cysteine pairing not given here) [18-mer peptide from the C-terminal TSP motif of ADAMTS-18, conjugated to biotin]”, for which the platelet oxidation/fragmentation entry was “no effect” with platelets [3] (peptide alone) and “did induce oxidation/fragmentation” with platelets [3] (peptide clustered with an anti-biotin antibody, n=6). superoxide dismutase: in the assay with platelets [1] (setting [6]), the “effect on Ab-induced platelet particle formation” value is reported as “inhibited”.

With `CCCCC[C@H](O)/C=C/[C@H]1[C@H](O)CC(=O)[C@@H]1CCCCCCC(=O)O` [PGE1], in the assay with platelets [1] (agent at 1 μM, n=6), the “oxidative fragmentation/death in the presence of the agent” value is “not induced”. Take `Oc1ncnc2[nH]ncc12` [allopurinol]: the “effect on Ab-induced platelet particle formation” value in the assay on platelets [1] (inhibitor at 200 uM) was “failed to inhibit”.

calpastatin: the “effect on Ab-induced platelet particle formation” value with platelets [1] (inhibitor at 100 uM) is reported as “unsuccessful”. Turning to `O=S(=O)(F)Cc1ccccc1` [PMSF], the “effect on Ab-induced platelet particle formation” value in the assay with platelets [1] (setting [7]) was “unsuccessful”. For the molecule catalase, the “effect on Ab-induced platelet particle formation” value in the assay on platelets [1] (setting [6]) was “could inhibit the reaction; also recorded: inhibited”. Further, in the assay with platelets [3], the “effect of oxidation scavenger on reactivity of A23187 and PMA” value is recorded as “inhibited”. As to `O=C(O)CN(CC(=O)O)c1ccccc1OCCOc1ccccc1N(CC(=O)O)CC(=O)O` [BAPTA], the “inhibition of Ca++ flux” value in the assay with platelets [2] (10 microM) was “completely inhibited”. As for `CC[C@]1(O)C[C@@H]2CN(CCc3c([nH]c4ccccc34)[C@@](C(=O)OC)(c3cc4c(cc3OC)N(C)[C@H]3[C@@](O)(C(=O)OC)[C@H](OC(C)=O)[C@]5(CC)C=CCN6CC[C@]43[C@@H]65)C2)C1` [vinblastine], the “effect on Ab-induced platelet particle formation” value in the assay on platelets [1] (inhibitor at 0.2 (unit uncertain)) is “unsuccessful”.

Consider `CN[C@@H]1C[C@H]2O[C@@](C)([C@@H]1OC)n1c3ccccc3c3c4c(c5c6ccccc6n2c5c31)C(=O)NC4` [staurosporine], for which the “effect on Ab-induced platelet particle formation” value with platelets [1] (inhibitor at 200 uM) is reported as “unsuccessful”. Turning to `CC(=O)N[C@@H](CC(C)C)C(=O)N[C@@H](CC(C)C)C(=O)N[C@H](C=O)CCCNC(=N)N` [leupeptin], in the assay on platelets [1] (inhibitor at 5 ug/ml), the “effect on Ab-induced platelet particle formation” value was “unsuccessful”. Take `CCCCCCCCCCCCCC(=O)O[C@@H]1[C@@H](C)[C@@]2(O)[C@@H](C=C(CO)C[C@]3(O)C(=O)C(C)=C[C@@H]23)[C@@H]2C(C)(C)[C@]12OC(C)=O` [PMA, phorbol 12-myristate 13-acetate]: the “oxidation of platelets loaded with the oxidative fluorochrome DCHF” value with platelets [3] was “induce oxidation”. For the same molecule, in the assay with platelets [3] (0.4 μM), the “induction of platelet oxidation/fragmentation” value is recorded as “induced”. The “reactivity (platelet oxidation) in KO mouse platelets” value in assay [4] is “absent”.

B1: HUVEC conditioned media ADAMTS-18: ADAMTS-18 in HUVEC conditioned media (protein, UniProt Q8TE60 285-1221, looked up)
A disintegrin and …: SAGKSQKGLNVETLVVADKKMVEKHGKGNVTTYILTVMNMVSGLFKDGTIGSDINVVVVSLILLEQEPGGLLINHHADQSLNSFCQWQSALIGKNGKRHDHAILLTGFDICSWKNEPCDTLGFAPISGMCSKYRSCTINEDTGLGLAFTIAHESGHNFGMIHDGEGNPCRKAEGNIMSPTLTGNNGVFSWSSCSRQYLKKFLSTPQAGCLVDEPKQAGQYKYPDKLPGQIYDADTQCKWQFGAKAKLCSLGFVKDICKSLWCHRVGHRCETKFMPAAEGTVCGLSMWCRQGQCVKFGELGPRPIHGQWSAWSKWSECSRTCGGGVKFQERHCNNPKPQYGGLFCPGSSRIYQLCNINPCNENSLDFRAQQCAEYNSKPFRGWFYQWKPYTKVEEEDRCKLYCKAENFEFFFAMSGKVKDGTPCSPNKNDVCIDGVCELVGCDHELGSKAVSDACGVCKGDNSTCKFYKGLYLNQHKANEYYPVVLIPAGARSIEIQELQVSSSYLAVRSLSQKYYLTGGWSIDWPGEFPFAGTTFEYQRSFNRPERLYAPGPTNETLVFEILMQGKNPGIAWKYALPKVMNGTPPATKRPAYTWSIVQSECSVSCGGGYINVKAICLRDQNTQVNSSFCSAKTKPVTEPKICNAFSCPAYWMPGEWSTCSKACAGGQQSRKIQCVQKKPFQKEEAVLHSLCPVSTPTQVQACNSHACPPQWSLGPWSQCSKTCGRGVRKRELLCKGSAAETLPESQCTSLPRPELQEGCVLGRCPKNSRLQWVASSWSECSATCGLGVRKREMKCSEKGFQGKLITFPERRCRNIKKPNLDLEETCNRRACPAHPVYNMVAGWYSLPWQQCTVTCGGGVQTRSVHCVQQGRPSSSCLLHQKPPVLRACNTNFCPAPEKREDPSCVDFFNWCHLVPQHGVCNHKFYGKQCCKSCTRKI
modifications: natural, HUVEC conditioned media
notes: ADAMTS-18 in HUVEC conditioned media
For B1, in the assay on platelets [3] (thrombin 0.5μ/mL, then neutralized with hirudin, n=4), the “time of optimum effect of activation by thrombin” value is reported as “one”.
